Source: paper PMC9516332 (Frontiers in Oncology, 2022)
pIC50: −log10 of the molar value. Like-named read-outs stand apart in the source and are kept apart here.

Test system: 134 cancer cell lines
Assay: Cell viability assay (ATPlite, 72 hours), IC50 on cancer cell line panel

## O=C(c1ccc(F)c(F)c1Nc1ccc(I)cc1F)N1CC(O)([C@@H]2CCCCN2)C1 [cobimetinib]
HEC-6, read-out: IC50 in cell proliferation assay, HEC-6 cell line (EGFR p.A289V)
  pIC50: 6.79
Homo sapiens, 769-P, read-out: IC50 in cell proliferation assay, cell line 769-P
  pIC50: 6.37
Homo sapiens, 786-0, read-out: IC50 in cell proliferation assay, cell line 786-O
  pIC50: 6.69
Homo sapiens, A 172, read-out: IC50 in cell proliferation assay, cell line A-172
  pIC50: 6.66
Homo sapiens, A204, read-out: IC50 in cell proliferation assay, cell line A-204
  pIC50: 6.05
Homo sapiens, A498, read-out: IC50 in cell proliferation assay, cell line A-498
  pIC50: 5.41
Homo sapiens, A549, read-out: IC50 in cell proliferation assay, cell line A-549
  pIC50: 6.59
Homo sapiens, A704, read-out: IC50 in cell proliferation assay, cell line A-704
  pIC50: < 5.00
Homo sapiens, A-375, read-out: IC50 in cell proliferation assay, cell line A-375 (BRAF p.V600E)
  pIC50: 7.89
Homo sapiens, A-427, read-out: IC50 in cell proliferation assay, cell line A-427
  pIC50: 7.14
Homo sapiens, ACHN, read-out: IC50 in cell proliferation assay, cell line ACHN
  pIC50: 6.98
Homo sapiens, AN3-CA, read-out: IC50 in cell proliferation assay, cell line AN3-CA (FGFR2 p.N549K)
  pIC50: 6.25
Homo sapiens, ASPC1, read-out: IC50 in cell proliferation assay, cell line AsPC-1
  pIC50: 7.21
Homo sapiens, AU565, read-out: IC50 in cell proliferation assay, cell line AU565 (ERBB2 amplification)
  pIC50: < 5.00
Homo sapiens, BT-20, read-out: IC50 in cell proliferation assay, cell line BT-20
  pIC50: < 5.00
Homo sapiens, BT-474, read-out: IC50 in cell proliferation assay, cell line BT-474 (ERBB2 amplification)
  pIC50: 5.22
Homo sapiens, BT-549, read-out: IC50 in cell proliferation assay, cell line BT-549
  pIC50: 5.24
Homo sapiens, BXPC-3, read-out: IC50 in cell proliferation assay, cell line BxPC-3
  pIC50: 8.00
Homo sapiens, C-33-A, read-out: IC50 in cell proliferation assay, cell line C-33 A
  pIC50: 7.37
Homo sapiens, CAL-27, read-out: IC50 in cell proliferation assay, cell line CAL-27
  pIC50: 7.20
Homo sapiens, CCF-STTG1, read-out: IC50 in cell proliferation assay, cell line CCF-STTG1
  pIC50: < 5.00
Homo sapiens, CCRF-CEM, read-out: IC50 in cell proliferation assay, cell line CCRF-CEM
  pIC50: 5.07
Homo sapiens, COLO 205, read-out: IC50 in cell proliferation assay, cell line COLO 205 (BRAF p.V600E)
  pIC50: 8.00
Homo sapiens, COLO-829, read-out: IC50 in cell proliferation assay, cell line COLO 829 (BRAF p.V600E)
  pIC50: 7.55
Homo sapiens, DLD-1, read-out: IC50 in cell proliferation assay, cell line DLD-1
  pIC50: 6.14
Homo sapiens, DU-4475, read-out: IC50 in cell proliferation assay, cell line DU4475 (BRAF p.V600E)
  pIC50: 7.77
Homo sapiens, Daoy, read-out: IC50 in cell proliferation assay, cell line Daoy
  pIC50: < 5.00
Homo sapiens, DoTc2-4510, read-out: IC50 in cell proliferation assay, cell line DoTc2 4510
  pIC50: 7.38
Homo sapiens, EOL1, read-out: IC50 in cell proliferation assay, cell line EoL-1 (FIP1L1-PDGFRA)
  pIC50: 7.06
Homo sapiens, FaDu, read-out: IC50 in cell proliferation assay, cell line FaDu
  pIC50: 6.84
Homo sapiens, G-361, read-out: IC50 in cell proliferation assay, cell line G-361 (BRAF p.V600E)
  pIC50: 7.96
Homo sapiens, HCC827, read-out: IC50 in cell proliferation assay, cell line HCC827 (EGFR exon19del)
  pIC50: 6.49
Homo sapiens, HCC4006, read-out: IC50 in cell proliferation assay, cell line HCC4006 (EGFR exon19del)
  pIC50: 5.89
Homo sapiens, HCT-15, read-out: IC50 in cell proliferation assay, cell line HCT 15
  pIC50: 5.45
Homo sapiens, HCT-116, read-out: IC50 in cell proliferation assay, cell line HCT 116
  pIC50: 6.97
Homo sapiens, HEC-1, read-out: IC50 in cell proliferation assay, HEC-1 cell line
  pIC50: 6.43
Homo sapiens, HEC-1B, read-out: IC50 in cell proliferation assay, HEC-1-B cell line (EGFR p.A864V)
  pIC50: 7.89
Homo sapiens, HL-60, read-out: IC50 in cell proliferation assay, HL-60 cell line
  pIC50: 7.72
Homo sapiens, HT, read-out: IC50 in cell proliferation assay, HT cell line
  pIC50: < 5.00
Homo sapiens, HT-1080, read-out: IC50 in cell proliferation assay, HT-1080 cell line
  pIC50: 7.17
Homo sapiens, Hs746T, read-out: IC50 in cell proliferation assay, Hs 746.T cell line (MET exon14skip + amplification)
  pIC50: 6.28
Homo sapiens, Hs-578T, read-out: IC50 in cell proliferation assay, Hs 578T cell line
  pIC50: 5.65
Homo sapiens, HuTu80, read-out: IC50 in cell proliferation assay, HuTu 80 cell line
  pIC50: 6.50
Homo sapiens, J82, read-out: IC50 in cell proliferation assay, J82 cell line
  pIC50: 7.07
Homo sapiens, Jurkat E6.1, read-out: IC50 in cell proliferation assay, Jurkat E6.1 cell line
  pIC50: < 5.00
Homo sapiens, K562, read-out: IC50 in cell proliferation assay, K-562 cell line
  pIC50: 7.14
Homo sapiens, KATO III, read-out: IC50 in cell proliferation assay, KATO III cell line (FGFR2 amplification)
  pIC50: 6.54
Homo sapiens, KG-1, read-out: IC50 in cell proliferation assay, KG-1 cell line (FGFR1OP2-FGFR1)
  pIC50: 7.59
Homo sapiens, KLE, read-out: IC50 in cell proliferation assay, KLE cell line
  pIC50: < 5.00
Homo sapiens, KMS-11, read-out: IC50 in cell proliferation assay, KMS-11 cell line (FGFR3 p.Y373C)
  pIC50: 5.38
Homo sapiens, KU812, read-out: IC50 in cell proliferation assay, Ku812 cell line
  pIC50: 7.19
Homo sapiens, Kasumi 1, read-out: IC50 in cell proliferation assay, Kasumi-1 cell line (KIT p.N822K)
  pIC50: 7.21
Homo sapiens, LC-2-ad, read-out: IC50 in cell proliferation assay, LC-2/ad cell line (CCDC6-RET)
  pIC50: 5.92
Homo sapiens, LNCaP-Clone-FGC, read-out: IC50 in cell proliferation assay, LNCaP clone FGC cell line
  pIC50: 5.02
Homo sapiens, LS174T, read-out: IC50 in cell proliferation assay, LS174T cell line
  pIC50: 7.60
Homo sapiens, LS-411N, read-out: IC50 in cell proliferation assay, LS411N cell line (BRAF p.V600E)
  pIC50: 7.68
Homo sapiens, LoVo, read-out: IC50 in cell proliferation assay, LoVo cell line
  pIC50: 6.93
Homo sapiens, MCF7, read-out: IC50 in cell proliferation assay, MCF-7 cell line
  pIC50: 5.07
Homo sapiens, MDA-MB-231, read-out: IC50 in cell proliferation assay, MDA-MB-231 cell line
  pIC50: 6.72
Homo sapiens, MDA-MB-453, read-out: IC50 in cell proliferation assay, MDA-MB-453 cell line
  pIC50: 6.30
Homo sapiens, MDA-MB-468, read-out: IC50 in cell proliferation assay, MDA-MB-468 cell line
  pIC50: 6.61
Homo sapiens, MG-63, read-out: IC50 in cell proliferation assay, MG-63 cell line
  pIC50: 6.38
Homo sapiens, MIA PaCa-2, read-out: IC50 in cell proliferation assay, MIA PaCa-2 cell line
  pIC50: 7.17
Homo sapiens, MKN-45, read-out: IC50 in cell proliferation assay, MKN45 cell line (MET amplification)
  pIC50: 6.53
Homo sapiens, MOLM-13, read-out: IC50 in cell proliferation assay, MOLM-13 cell line (FLT3 ITD)
  pIC50: 6.76
Homo sapiens, MOLT-4, read-out: IC50 in cell proliferation assay, MOLT-4 cell line
  pIC50: < 5.00
Homo sapiens, MV4-11, read-out: IC50 in cell proliferation assay, MV4-11 cell line (FLT3 ITD)
  pIC50: 6.95
